Twelve compounds from patent US8530465B2, “1, 2-disubstituted amido-anthraquinone derivatives, preparation method and application thereof” (National Defense Medical Center, priority 2010, dated 2013) can be followed below.

By viability is commonly meant a read-out of living cells in per cent, often relative to untreated cells. As usually defined, the melting point is the temperature, or range, at which the solid turns liquid.

One series relates to hTERT. As to the kind of experiment: Secreted alkaline phosphatase (SEAP) assay, PhTERT-SEAP (H1299). The format is cell-based. The following applies: Homo sapiens, 24 hours; for activity at 1 µM: NCI-H1299, Conc. 1 μM, read-out: Relative SEAP activity (%); for activity at 10 µM: NCI-H1299, Conc. 10 μM; for activity at 10 µM / activity at 100 µM: read-out: Relative SEAP activity (%) (converted); for activity at 100 µM: NCI-H1299, Conc. 100 μM. On the procedure: H1299 were grown in RPMI 1640 media supplemented with 10% fetal bovine serum, 100 units/mL penicillin and […] streptomycin in a humidified atmosphere with 5% CO2 at 37° C. Culture media were changed every three days. To establish stable cell lines that the expression of hTERT could be monitored by a reporter system, a about 3.3 kbp DNA fragment ranging from −3338 to +1 bp of the hTERT gene (hTERT promoter, PhTERT) was subcloned upstream to a secreted alkaline phosphatase gene (SEAP) and transfected into H1299 by electroporation. The stable clones were selected using G418. The stable clones derived from H1299 were cultured using conditions that are similar to their parental cells.
Secreted alkaline phosphatase was used as the reporter system to monitor the transcriptional activity of hTERT. Here, about 10^4 cells each were grown in 96-well plates and incubated at 37° C. for 24 hours and changed with fresh media. Varying amounts of drugs were added and cells were incubated for another 24 hours. Culture media were collected and heated at 65° C. for 10 min to inactivate heat-labile phosphatases. An equal amount of SEAP buffer (2 M diethanolamine, 1 mM MgCl2, and 20 mM L-homoarginine) was added to the media and p-nitrophenyl phosphate was added to a final concentration of 12 mM. Absorptions at 405 nm were taken, and the rate of absorption increase is determined (the increasing rate of absorbance at 405 nm was used to represent the activity of SEAP).

Series [1] is described as follows: MTT assay, PhTERT-SEAP (H1299). The format is cell-based, human. To be noted: human, H1299 cells carrying the PhTERT-SEAP reporter, PhTERT-SEAP (H1299); for viability at 1 μM: Conc. 1 μM, read-out: Relative MTT viability (%); for viability at 10 μM: Conc. 10 μM; for viability at 10 μM / viability at 100 μM: read-out: Relative MTT viability (%) (converted); for viability at 100 μM: Conc. 100 μM. The procedure:
(§1) Further, cells were subjected to MTT assay to compare the relative toxicity or effect of each compound on cell proliferation and activity.
(§2) The above-described cells are cultured in a 96-well plate, to which was added with 25 μl MTT solution, and cultured in a 37° C. carbon dioxide incubator for 4 hours. Then, 100 μl Lysis buffer is added and incubated in a 37° C. carbon dioxide incubator overnight. An ELISA reader (Bio-Rad Model 450) is used to read optical density (O.D.) at 550 nm.

The next series deals with H1299. Kind of series: MTT assay, PhTERT-SEAP (H1299). The following applies: H1299; for cell toxicity activity: low concentration (1 μM). Format: cell-based, human. The procedure: as §1, §2

In the case of `O=C(CCl)Nc1ccc2c(c1NC(=O)CCl)C(=O)c1ccccc1C2=O` [CC-01, 1,2-bis-(chloroacetamido)-anthraquinone], the melting point lay in the range of 254 to 255 °C. Further, in the series on hTERT, the activity at 1 µM was 15.9 ± 1.06%, the activity at 10 µM is 13.7% and the activity at 100 µM is 13.7%. Also, the viability at 1 μM in series [1] came out at 8.1 ± 3.87%. Besides, the “cell toxicity / inhibitory activity compared with mitoxantrone and doxorubicin” value with H1299 (SEAP and MTT analysis) was “higher cell toxicity activity than mitoxantrone and doxorubicin”.

For `CC(Cl)C(=O)Nc1c(NC(=O)CCl)ccc2c1C(=O)c1ccccc1C2=O` (stereo not shown) [CC-06, 1-[(2-chloropropanyl)amido]-2-(chloroacetamido)-anthraquinone], the melting point fell in the range of 175 to 176 °C. Also, in the series with hTERT, the activity at 1 µM worked out at 12.1 ± 0.44%, the activity at 10 µM is 1.04% and the activity at 100 µM is 2.38%. In addition, in series [1], the viability at 1 μM was determined as 9.01 ± 1.66%. Also, the “cell toxicity / inhibitory activity compared with mitoxantrone and doxorubicin” value in the series on H1299 (SEAP and MTT analysis) was “higher cell toxicity activity than mitoxantrone and doxorubicin”.

With `O=C(CCl)Nc1ccc2c(c1NC(=O)c1cccc(F)c1)C(=O)c1ccccc1C2=O` [CC-14, 1-(3-fluorobenzamido)-2-(chloroacetamido)-anthraquinone], the melting point lay within 197 to 198 °C. In the series with hTERT, the activity at 1 µM came to 26.9 ± 11.6%, the activity at 10 µM is 1.77% and the activity at 100 µM was 0.97%. In addition, in series [1], the viability at 1 μM is 18.3 ± 13.5% and the viability at 10 μM is 8.06%. The “cell toxicity / inhibitory activity compared with mitoxantrone and doxorubicin” value in the series on H1299 (SEAP and MTT analysis) is “inhibitory activity even better than mitoxantrone and doxorubicin”. Further, the cell toxicity activity entry in the series on H1299 is recorded as “very strong cell toxicity activity”.

On to `O=C(CCl)Nc1ccc2c(c1NC(=O)c1ccc(F)cc1)C(=O)c1ccccc1C2=O` [CC-15, 1-(4-fluorobenzamido)-2-(chloroacetamido)-anthraquinone], for which the melting point was 184 to 185 °C. In the series on hTERT, the activity at 1 µM is 11.9 ± 9.77%, the activity at 10 µM is 2.58% and the activity at 100 µM was 0.52%. Also, in series [1], the viability at 1 μM is 10.9 ± 2.92% and the viability at 10 μM was 4.2%. Moreover, the “cell toxicity / inhibitory activity compared with mitoxantrone and doxorubicin” value with H1299 (SEAP and MTT analysis) was “inhibitory activity even better than mitoxantrone and doxorubicin”. For the same compound, in the series with H1299, the cell toxicity activity entry is on record as “very strong cell toxicity activity”.

For the compound `O=C(CN1CCN(c2ccccc2)CC1)Nc1ccc2c(c1NC(=O)c1ccccc1)C(=O)c1ccccc1C2=O` [CC-33, 1-(benzamido)-2-[2-(4-phenylpiperazino)acetylamino]-anthraquinone], the melting point was in the range of 225 to 226 °C. Also, in the series with hTERT, the activity at 1 µM was 85.9 ± 8.01%, the activity at 10 µM was 97.9 ± 4.82% and the activity at 100 µM was 89.6 ± 3.37%. For the same compound, in series [1], the viability at 1 μM stood at 86.3 ± 2.6%, the viability at 10 μM is 110 ± 8.53% and the viability at 100 μM is 88 ± 6.32%. The cell toxicity result in the series with H1299 (1 μM, 10 μM, and 100 μM) is reported as “no significant cell toxicity”.

The compound `Cc1ccc(C(=O)Nc2c(NC(=O)CN3CCN(CCO)CC3)ccc3c2C(=O)c2ccccc2C3=O)cc1` [CC-44, 1-(4-methylbenzamido)-2-[2-(4-(2-hydroxyethyl)piperazino]acetylamino]-anthraquinone] came in with a melting point of 210 to 211 °C. For the same compound, in the series on hTERT, the activity at 1 µM came to 77 ± 9.13%, the activity at 10 µM was 8.09% and the activity at 100 µM was -1.24%. For the same compound, in series [1], the viability at 1 μM is 71.5 ± 5.12% and the viability at 10 μM is 44.8%. Besides, in the series on H1299 (SEAP and MTT analysis), the “inhibitory activity among compounds CC-35 to CC-50” value is on record as “higher inhibitory activity”.

`Cc1ccc(C(=O)Nc2c(NC(=O)CN3CCN(c4ccccc4)CC3)ccc3c2C(=O)c2ccccc2C3=O)cc1` [CC-45, 1-(4-methylbenzamido)-2-[2-(4-phenylpiperazino)acetylamino]-anthraquinone]: the melting point is 270 to 271 °C. Also, in the series with hTERT, the activity at 1 µM worked out at 93.2 ± 4.68%, the activity at 10 µM is 88.2% and the activity at 100 µM is 15.9%. In series [1], the viability at 1 μM worked out at 80.8 ± 6.98%, the viability at 10 μM is 77% and the viability at 100 μM was 23.2%.

Regarding `Cc1ccc(C(=O)Nc2c(NC(=O)CN3CCN(c4ccccc4F)CC3)ccc3c2C(=O)c2ccccc2C3=O)cc1` [CC-46, 1-(4-methylbenzamido)-2-[2-[4-(2-fluorophenyl)piperazino]acetylamino]-anthraquinone], the melting point lay within 228 to 229 °C. In addition, in the series with hTERT, the activity at 1 µM is 85 ± 10.8%, the activity at 10 µM was 76.2% and the activity at 100 µM was 20.1%. In series [1], the viability at 1 μM was determined as 79.8 ± 9.65%, the viability at 10 μM is 68.7% and the viability at 100 μM was 40.8%.

For `Cc1ccc(C(=O)Nc2c(NC(=O)CN3CCN(c4ccccc4C#N)CC3)ccc3c2C(=O)c2ccccc2C3=O)cc1` [CC-47, 1-(4-methylbenzamido)-2-[2-[4-(2-cyanophenyl)piperazino]acetylamino]-anthraquinone], the melting point lay in the range of 238 to 239 °C. For the same compound, in the series on hTERT, the activity at 1 µM stood at 81 ± 9.56%, the activity at 10 µM is 74.2% and the activity at 100 µM was 20.8%. In series [1], the viability at 1 μM came to 72 ± 11.1%, the viability at 10 μM is 60.1% and the viability at 100 μM is 48.2%.

`COc1ccccc1N1CCN(CC(=O)Nc2ccc3c(c2NC(=O)c2ccc(C)cc2)C(=O)c2ccccc2C3=O)CC1` [CC-48, 1-(4-methylbenzamido)-2-[2-[4-(2-methoxyphenyl)piperazino]acetylamino]-anthraquinone]: the melting point fell in the range of 215 to 216 °C. Also, in the series on hTERT, the activity at 1 µM was 83.3 ± 2.81%, the activity at 10 µM is 68.3% and the activity at 100 µM was 12.2%. Besides, in series [1], the viability at 1 μM came to 76.4 ± 3.95%, the viability at 10 μM is 78.3% and the viability at 100 μM was 22.7%.

For the compound `Cc1ccc(C(=O)Nc2c(NC(=O)CN3CCN(c4ccccn4)CC3)ccc3c2C(=O)c2ccccc2C3=O)cc1` [CC-49, 1-(4-methylbenzamido)-2-[2-[4-(2-pyridyl)piperazino]acetylamino]-anthraquinone], the melting point lay within 258 to 259 °C. Also, in the series on hTERT, the activity at 1 µM came to 97.1 ± 7.43%, the activity at 10 µM was 64.3% and the activity at 100 µM is 9.96%. In series [1], the viability at 1 μM stood at 105 ± 3.65%, the viability at 10 μM is 100% and the viability at 100 μM is 6.46%.

In turn, `Cc1ccc(C(=O)Nc2c(NC(=O)CN3CCN(c4ncccn4)CC3)ccc3c2C(=O)c2ccccc2C3=O)cc1` [CC-50, 1-(4-methylbenzamido)-2-[2-[4-(2-pyrimidinyl)piperazino]acetylamino]-anthraquinone] gave a melting point of 267 to 268 °C. In the series on hTERT, the activity at 1 µM is 87.1 ± 7.97%, the activity at 10 µM is 79.5% and the activity at 100 µM was 20%. For the same compound, in series [1], the viability at 1 μM worked out at 102 ± 5.76%, the viability at 10 μM is 91.5% and the viability at 100 μM was 59%.
